Reference: US8394377B2, “Methods for treating cancer using combination therapy” (The Regents of the University of Colorado, priority 2008, dated 2013)

Key:
Assay type in all cases: cell-based
[1] = Percent viability of treated MCF7 ADR cells (flow cytometry); details: human, 5 mg/ml DCA, 0.1 mg/ml Etomoxir, or both, time point (24 or 48 hrs) not given
Method: (§1) 1. Cell Culture Conditions: The MCF7 and MCF7 ADR cell lines were purchased from American Type Culture Collection, were thawed, and grown in RPMI 1640 medium supplemented with standard supplements, including 10% fetal calf serum, gentamycin, penicillin, streptomycin, sodium pyruvate, HEPES buffer, 1-glutamine, and 2-ME.
(§2) 2. Methods: Cells were plated into a 12 well plate with 4 mis total volume containing approximately 0.6×10^6/well for MCF7 cells and 0.8×10^6/well for MCF7 ADR cells. Treatment groups included no treatment as control; 5 mg/ml Dichloroacetate; 0.1 mg/ml Etomoxir; Both 5 mg/ml DCA and 0.1 mg/ml Etomoxir.
(§3) The cells were incubated at 37° C. in an atmosphere containing 5% CO2 and approximately 92% humidity. The cells were incubated for 24 and 48 hours. At each time point, the cells from that experimental time were harvested and stained for flow cytometric analysis of cell surface expression of HER-2/neu using anti-human HER-2 Fitc. (BD biosciences, Catalogue #340553).

[2] = Percent viability of treated MCF7 cells (flow cytometry); details: human, 5 mg/ml DCA, 0.1 mg/ml Etomoxir, or both, time point (24 or 48 hrs) not given
Method: as §1, §2, §3

HER-2 on MCF7 ADR cells = test: Cell surface HER-2 expression by flow cytometry with FITC anti-human HER-2
Method: as §1, §2, §3
Harvested cells were stained using standard fixed staining procedure that called for a 1:5 dilution of Fitc-anti-human HER-2 or isotype control. […] Samples were acquired and analyzed on a Coulter Excel Flow Cytometer. […]
The results in the Figures are expressed in histogram analyses. The Y axis represents cell number of the 5000 live cells versus the X axis which is a reflection of relative Fitc fluorescence. […]

SMILES | viability [1] | viability [2] | HER-2 expression (HER-2 on MCF7 ADR cells; HER-2 lo/negative MCF7-Adr cells, as shown in the figures) | HER-2 cell surface expression (HER-2 on MCF7 ADR cells; MCF7 ADR cells, 48 hours, 0.1 mg/ml Etomoxir)
O=C(O)C(Cl)Cl [DCA, Dichloroacetate] | 58% | 42% |  | 
CCOC(=O)C1(CCCCCCOc2ccc(Cl)cc2)CO1 (stereo not drawn) [Etomoxir, 2-(6-(4-chlorophenoxy)-hexyl)-oxirane-2-carboxylic acid ethyl ester] | 66% | 78% | major increase | noticeable Increase
